Where “and” joins values, the source holds several entries; their conditions need not be identical. Equal values may be shown once.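 48-hour exposure; five concentrations; linearly interpolated endpoints. Abbreviation: GI50, concentration required for 50% inhibition of growth. The concentration for full growth arrest is given as TGI.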

The results in this text go back to PubChem BioAssay (NCI).

What all share (test): inhibition of tumour cell growth, NCI panel, 48 h
Assay [1] relates to 786-0 renal.
Assay [2] has as its system HOP-92 NSCLC.
In assay [3] the test system is KM12 colon.
The test system of assay [4] is NCI-H522 lung.
Assay [5] deals with SNB-19 CNS.
The test system of assay [6] is SR leukemia.
In assay [7] the test system is TK-10 renal.
The subject of assay [8] is UACC-257 melanoma.
Assay [9] relates to HS 578T breast.
Assay [10] relates to T-47D breast.

For `O=C1CCCC(=O)C1=C(O)CCCCCCCCCCc1ccccc1`, the TGI in assay [1] was over 100 µM; in [2], 39.6 µM; in assay [3], over 100 µM; in assay [4], 82.2 µM; in assay [5], over 100 µM; in [6] it was 71.9 µM. The TGI in assay [7] and in assay [8] was over 100 µM throughout.
Regarding `CCOP(=O)(OCC)/C(C#N)=C/c1ccc[nH]1`, the TGI in [1], in assay [2], in assay [3], in assay [4], in assay [5] and in [6] was over 100 µM throughout. Further, the TGI in [7] and in [8] was over 100 µM throughout.
On to `Cn1cnc([N+](=O)[O-])c1Sc1nc2cccnc2s1`, for which the TGI in assay [1] is 28.1 µM; in assay [2], 33.9 µM; in [3], over 100 µM; in assay [5] it was over 100 µM; in assay [6], 37.1 µM; in [7], 30.3 µM. This molecule gave a TGI in [8] of 27.9 µM.
For `CN1C(=O)c2cc([N+](=O)[O-])ccc2[C@H]2C(=O)c3cc4c(cc3[C@H]21)OCO4`, the GI50 in assay [1] was 0.0388 µM; in assay [2], 1.49 µM; in assay [9] it was 0.93 µM; in assay [3], 0.337 µM; in [4] it was under 0.0179 µM; in [5], 0.22 µM. For the same molecule, the GI50 in assay [10] was 0.321 µM; in assay [7], 1.28 µM; in assay [8], 0.139 µM. The TGI in assay [9] was over 100 µM; in assay [4] it was 9.42 µM; in [5] it was over 28.2 µM; in assay [10], over 29.4 µM; in assay [8], 3.3 µM.
Consider `COc1cc2c3c(n(CCCNC(=O)OCC4c5ccccc5-c5ccccc54)c(=O)c2cc1OC)-c1cc2c(cc1C3=O)OCO2`, for which the GI50 in [1] is 37.7 µM; in assay [2] it was 48.8 µM; in assay [9], 22.8 µM; in assay [3] it was over 100 µM; in assay [4], 34.9 µM; in [5] it was over 76.4 µM. For the same molecule, the GI50 is over 100 µM in assay [10], over 56.2 µM in assay [7] and over 100 µM in assay [8]. Besides, the TGI in [1], in assay [2], in assay [9], in assay [3], in assay [4] and in [5] was over 100 µM in each case. In addition, the TGI in assay [10], in assay [7] and in assay [8] was over 100 µM each time.
As to `CCOC(=O)N[C@H]1CCc2cc(O)c(OC)c(OC)c2-c2ccc(SC)c(=O)cc21`, the TGI in assay [1] was over 59.9 µM; in [2], 0.0786 µM; in assay [3], 0.413 µM; in [4] it was 0.046 µM; in [5], over 100 µM; in [6] it was over 100 µM. Further, the TGI in assay [7] and in assay [8] was over 100 µM throughout.
For the molecule `CC1CC(=O)C(CC(=O)O)C1C(C(=O)C(=O)Nc1c(C#N)cccc1[N+](=O)[O-])[N+](=O)[O-]` (configuration not stated), the TGI in assay [1], in [2], in [3], in [5], in assay [6] and in [7] was over 100 µM in each case. Also, the TGI in assay [8] was over 100 µM.
Take `CCC[CH2][Sn]1([CH2]CCC)[O]C(=O)c2cccc(OC)c2[O]1`: the GI50 was 0.554 µM in [1]; under 0.0456 µM in [2]; 1.1 µM in assay [3]; 0.0386 µM in [4]; 0.799 µM in assay [5]; 0.316 µM in assay [7]. Moreover, the GI50 in [8] was 0.199 µM. For the same molecule, the TGI in [1] came out at 1.91 µM; in assay [2], 0.486 µM; in [3] it was 2.32 µM; in [4] it was 0.179 µM; in [5] it was 2.13 µM; in assay [7], 0.829 µM. The same molecule came in with a TGI in assay [8] of 0.537 µM.
As for `CCN(CC)CCC(=O)N1CCc2c([nH]c3ccccc23)C1c1cccnc1` (configuration not stated), the TGI in assay [1], in assay [2], in assay [3], in [4], in [5] and in [6] was over 100 µM in each case. The TGI in [7] and in [8] was over 100 µM throughout.
Take `O=C(Nc1ccc([N+](=O)[O-])cc1C(=O)O)c1ccc([N+](=O)[O-])cc1`: the TGI was over 100 µM in assay [1]; 36.6 µM in assay [2]; 99.5 µM in assay [3]; over 100 µM in [5]; over 100 µM in assay [7]; over 100 µM in assay [8].
On to `N#CCc1ccc(/C(C#N)=C2/OC(=N)C(c3ccc(CC#N)cc3)C2=O)cc1` (configuration not stated), for which the TGI in assay [1], in assay [2], in assay [4], in [5], in assay [7] and in assay [8] was over 100 µM throughout.
For the molecule `N#CCCN(CCC#N)c1ccc(/C=N\c2nc(-c3ccccc3)cs2)cc1`, the TGI in [1], in assay [2], in assay [4], in assay [5], in assay [7] and in assay [8] was over 100 µM throughout.
Take `CC1(C)N=C(N)N=C(N)N1c1ccc(OCC(=O)N2CCOCC2)c(Cl)c1`: the GI50 in assay [1] is 20.2 µM; in [2], over 100 µM; in assay [3], 4.7 µM; in [4] it was 2.24 µM; in assay [5], 19.1 µM; in assay [6], 0.568 µM. Further, the GI50 in [10], in [7] and in [8] was over 100 µM each time. The TGI in assay [1], in assay [2], in [3], in [4], in assay [5] and in [6] was over 100 µM in each case. Moreover, the TGI in assay [10], in assay [7] and in assay [8] was over 100 µM throughout.
Turning to `Cn1cnc([N+](=O)[O-])c1SC1=NCCS1`, the TGI is over 100 µM in assay [1]; over 100 µM in assay [2]; over 100 µM in assay [3]; 41.7 µM in assay [4]; over 100 µM in [5]; over 100 µM in [6]. For the same molecule, the TGI in assay [7] and in assay [8] was over 100 µM in each case.
For the molecule `Cc1ccc(-c2nc3c(C(=O)NCCN(C)C)cccc3[nH]2)cc1`, the TGI is over 100 µM in [1]; 32.4 µM in assay [2]; over 100 µM in assay [3]; over 100 µM in assay [5]; 48.9 µM in assay [7]; 27.5 µM in assay [8].
`COc1ccc(CC2NCCc3cc(OC)c(OC)cc32)cc1` (configuration not stated): the TGI in [1], in assay [2], in assay [3], in assay [4], in assay [5] and in assay [6] was over 100 µM in each case. The TGI in assay [7] and in [8] was over 100 µM in each case.
Regarding `Cc1ccc(NC(=O)COC(=O)c2cccc3c(=O)c4ccccc4[nH]c23)cc1`, the TGI is over 100 µM in assay [1]; over 100 µM in [2]; over 100 µM in [3]; 59.9 µM in [4]; over 100 µM in [5]; 65.1 µM in assay [6]. Further, the TGI in assay [7] and in [8] was over 100 µM throughout.
Turning to `CC(=O)OC1(C#N)CC2OC1C1C2N1C(=O)OC(C)(C)C` (configuration not stated), the TGI in [1], in assay [2], in [4], in assay [5] and in assay [7] was over 100 µM each time.
With `S=P1(c2ccccc2)Nc2ccc(Cl)cc2N1` (configuration not stated), the TGI in assay [1] was over 100 µM; in assay [2], 71.9 µM; in [3], over 100 µM; in assay [4], over 100 µM; in [5] it was over 100 µM; in assay [7], over 100 µM. This molecule also showed a TGI in assay [8] of over 100 µM.
Consider `COc1ccc(NC(=O)COC(=O)c2cccc3c(=O)c4ccccc4[nH]c23)cc1`, for which the TGI is 53.1 µM in assay [1]; 58.9 µM in assay [2]; 30.7 µM in assay [3]; 38.5 µM in [4]; over 100 µM in [5]; 28.9 µM in assay [6]. Moreover, the TGI in assay [7] was 42.1 µM; in assay [8], 42.7 µM.
For the molecule `CCCCCCCCCCCCCC(=O)OC(/C=C/C(C)C)C(O)C(O)C(OC)C(=O)NC1CCCCNC1=O` (configuration not stated), the GI50 in assay [1] was 1.56 µM; in assay [3] it was 3.92 µM; in assay [4], 5.27 µM; in [6] it was 0.381 µM; in [7], 8.26 µM; in assay [8], 6.37 µM. Besides, the TGI in assay [1] is 3.93 µM; in [2], 3.76 µM; in assay [3], 4.59 µM; in assay [4], 4.23 µM; in assay [5] it was 9.08 µM; in assay [6], 2.04 µM and 9.05 µM. In addition, the TGI stood at 11.6 µM in [7] and 6.5 µM in assay [8].
For `COCOCc1cc(OCc2ccccc2)c(OC)cc1Br`, the TGI in assay [1], in [2], in assay [3], in assay [5], in assay [6] and in assay [7] was over 100 µM throughout. In [8], this molecule yielded a TGI of over 100 µM.
In the case of `Cc1ccc([N+](=O)[O-])cc1NC(=O)C(=O)Cc1cc(=O)oc2cc(O)ccc12`, the TGI in assay [1] is over 100 µM; in assay [2], over 100 µM; in assay [3], over 100 µM; in [4], over 100 µM; in assay [5] it was over 100 µM; in assay [6] it was 94.2 µM. The TGI in assay [7] and in assay [8] was over 100 µM in each case.
Consider `O=C1Cc2ccccc2N1c1c(Cl)cccc1Cl`, for which the TGI in assay [1] was over 100 µM; in [2], over 100 µM; in assay [3] it was over 100 µM; in assay [4] it was over 100 µM; in assay [5], over 100 µM; in assay [6], 90.2 µM. The TGI in assay [7] and in assay [8] was over 100 µM each time.
Regarding `COc1ccc(/C(=N\O)c2cc(OC)c(OC)c(OC)c2)c(OC)c1N`, the GI50 in assay [1] was 6.77 µM; in [2], over 100 µM; in assay [9] it was 5.51 µM; in assay [3] it was 2.11 µM; in assay [4], 3.3 µM; in assay [5] it was 5.61 µM. The GI50 in [10] and in [7] was over 100 µM each time. For the same molecule, the TGI in assay [1], in [2], in assay [9], in [3], in assay [4] and in [5] was over 100 µM throughout. Further, the TGI in [10] and in assay [7] was over 100 µM in each case.
In the case of `Cc1cc(NS(=O)(=O)c2ccc(NC(=O)c3cccc4cc5ccccc5nc34)cc2)no1`, the TGI in [1] came out at 32.6 µM; in [3], 40.7 µM; in assay [4] it was 33.8 µM; in [5], 19.3 µM; in assay [7], 89.3 µM; in assay [8], 87.6 µM.
For `CC1C=CC(C)C2(O)C(=O)NC(O)C12` (configuration not stated), the TGI in [1], in assay [3], in [4], in [5], in [6] and in assay [7] was over 100 µM each time. Besides, in assay [8], the TGI is over 100 µM.
As for `Cc1cc(Cl)ccc1NC(=O)CC1SC(N)=NC1=O` (configuration not stated), the TGI in [1], in [3], in [4], in assay [5], in assay [7] and in assay [8] was over 100 µM throughout.
Take `C=CCC12CC(=O)C=C1CCC1(C2)OCCO1` (configuration not stated): the TGI in [1], in assay [3], in assay [4], in assay [5], in assay [6] and in [7] was over 100 µM each time. For the same molecule, the TGI in assay [8] was over 100 µM.
